Values quoted from earlier work in patent US12453351B2, “Herbicide compatibility improvement” (Monsanto Technology LLC, priority 2005, dated 2025).

Conditions: at 25° C.

For `O=C(O)CNCP(=O)(O)O` [Glyphosate], the Solubility in water is given as 1.16 % by weight.
